Reference: PMC9135230, “Extending the lore of curcumin as dipteran Butyrylcholine esterase (BChE) inhibitor: A holistic molecular interplay assessment” (PLoS ONE, 2022)
pIC50: −log10 of the molar value.

Key:
[1] = test system: T1, Butyrylcholine esterase (BChE); test: Ellman assay with S-butyrylthiocholine iodide in larval lysate; type: biochemical, Aedes aegypti
T1 construct: larval lysate (4th instar), native enzyme activity

[2] = test system: T1, Butyrylcholine esterase (BChE); test: Ellman assay in larval lysate; Michaelis-Menten and Lineweaver-Burk kinetics; type: biochemical, Aedes aegypti

SMILES | pIC50 [1] | pIC50 [2]
CCN(C)C(=O)Oc1cccc([C@H](C)N(C)C)c1 [rivastigmine] | 5.30 | 
COc1cc(/C=C/C(=O)CC(=O)/C=C/c2ccc(O)c(OC)c2)ccc1O [curcumin] |  | 3.70
